These results are taken from patent US12209096B2, “Compounds and compositions for inducing chondrogenesis” (NOVARTIS AG, priority 2017, dated 2025).

Each structure is given as a SMILES string. pEC50, pIC50: −log10 of the molar value.

One test concerns NHACs. The test is described as follows: calcium flux assay. In kind it is cell-based, human. The settings on record: Homo sapiens; for Emax: read-out: (A) % Efficacy. The gist of the method:
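Normal human articular chondrocytes plated at 2000 cells/well and loaded 24 h later with Calcium 5 dye in HBSS/HEPES with 5 mM probenecid for 1 h at room temperature. Test compound added at indicated dose; fluorescence (ex 470–495/em 515–575 nm) recorded on FLIPR before and after addition.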

A further test concerns C3H10T1/2 cell line. Put plainly: alkaline phosphatase assay in C3H10T1/2. In kind it is cell-based. The settings on record: Mus musculus, C3H 10T1/2, 144 h, alkaline phosphatase assay in C3H10T1/2, 6 days; for Emax: read-out: (D) % Efficacy; for pIC50: read-out: (D) IC50. As to the method:
To initiate differentiation in C3H10T1/2, Clone 8 (ATCC cat #CCL-226), 4,000 cells were plated/well in 384 Perkin Elmer CellCarrier Ultra plate in DMEM/High glucose (HyClone cat #SH30022.01) containing 10% FBS and 1× Antibiotic/Antimycotic (HyClone cat #SV30079.01). After 24 hours the test compound was then added to each well at the indicated dose. The cultures were grown at 37° C. for 6 days.
To detect the presence of hypertrophic cells, C3H10T1/2 were fixed with 4% paraformaldehyde and Hoeschst dye for 20 minutes, rinsed in PBS, then stained with Fast Blue RR Salt with Naphthol AS-MX Phosphate Alkaline Solution.
The ALP staining was imaged by fluoresecent microscopy, using the 561 wavelength, and/or quantified by high content imagining with the ImageXpress Micro Confocal (Molecular Devices, Sunnyvale, CA). Data analyses were performed with the customized multiwavelength cell-scoring application looking at the number of ALP positive cells per well.

What is called pEC50 is the negative decadic logarithm of the EC50, by convention in mol/L. As a reminder, the pIC50 is the IC50 on a negative log10 scale, so that one unit is a factor of ten.

Regarding `Cc1cc([C@H]2[C@H]3O[C@H]([C@@H]4C[C@@H]43)[C@@H]2C(=O)Nc2ncc(C)s2)ccn1` [Example 70, (1S,2S,4R,5R,6R,7S)-7-(2-methylpyridin-4-yl)-N-(5-methylthiazol-2-yl)-8-oxatricyclo[3.2.1.0^2,4]octane-6-carboxamide], in the test with NHACs, the negative-log EC50 (pEC50) was < 4.30 and the Emax worked out at 25%. In addition, in the test on C3H10T1/2 cell line, the Emax was found to be 1% and the negative logarithm of the IC50 (pIC50) was < 4.70.

On to `Cc1cc([C@H]2[C@H]3O[C@H]([C@@H]4C[C@@H]43)[C@@H]2C(=O)Nc2cccc(C(F)(F)F)c2)ccn1` (single isomer, unassigned) [Example 121a], for which, in the test on NHACs, the pEC50 was 5.57 and the Emax was found to be 231%. Further, in the test on C3H10T1/2 cell line, the Emax turned out to be 80% and the pIC50 was 5.35.

On to `Cc1cc([C@@H]2[C@@H]3O[C@@H](C[C@@H]3F)[C@H]2C(=O)Nc2ccc(Cl)c(Cl)c2)ccn1` (single isomer, unassigned) [Example 94], for which, in the test with NHACs, the pEC50 was 4.74 and the Emax was determined as 157%. In the test with C3H10T1/2 cell line, the Emax came to 0% and the pIC50 was < 4.70.

`O=C(Nc1ccc(Cl)c(Cl)c1)[C@H]1[C@H](c2ccnc(C(F)(F)F)c2)[C@@H]2O[C@H]1C[C@H]2O` (single isomer, unassigned) [Example 145b]: in the test on C3H10T1/2 cell line, the Emax was 83% and the negative logarithm of the IC50 (pIC50) is 4.96.

Regarding `O=C(Nc1ccc(Cl)c(Cl)c1)[C@@H]1[C@@H](c2ccnc(C(F)(F)F)c2)[C@H]2O[C@@H]1C[C@@H]2O` (single isomer, unassigned) [Example 145a], in the test on C3H10T1/2 cell line, the Emax worked out at 100% and the negative-log IC50 (pIC50) was 5.92.

For `Cc1cc([C@@H]2[C@@H]3O[C@@H](C[C@H]3O)[C@@H]2C(=O)Nc2ccc(Cl)c(Cl)c2)ccn1` (single isomer, unassigned) [Example 53b], in the test with NHACs, the pEC50 is < 4.30 and the Emax turned out to be 119%.

As for `COc1cc([C@H]2[C@H]3O[C@H](C[C@@H]3O)[C@H]2C(=O)Nc2ccc(Cl)c(Cl)c2)ccn1` (single isomer, unassigned) [Example 49a], in the test on NHACs, the pEC50 was 6.08 and the Emax was determined as 53%.

With `CN[C@@H]1C[C@H]2O[C@@H]1[C@H](c1ccnc(C)c1)[C@H]2C(=O)Nc1ccc(Cl)c(Cl)c1` [Example 167, (1R,2R,3S,4R,5R)—N-(3,4-dichlorophenyl)-5-(methylamino)-3-(2-methylpyridin-4-yl)-7-oxabicyclo[2.2.1]heptane-2-carboxamide], in the test with NHACs, the negative-log EC50 (pEC50) was 5.16 and the Emax came to 83%.

With `O=C(Nc1ccc(Cl)c(Cl)c1)[C@H]1[C@@H](c2ccnc(F)c2)[C@H]2O[C@@H]1C[C@@H]2O` (racemic) [Example 52, rac-(1R,2S,3S,4R,5S)—N-(3,4-dichlorophenyl)-3-(2-fluoropyridin-4-yl)-5-hydroxy-7-oxabicyclo[2.2.1]heptane-2-carboxamide], in the test on NHACs, the pEC50 was < 4.30 and the Emax worked out at 4%.

For `CN(C)[C@@H]1C[C@H]2O[C@@H]1[C@H](c1ccnc(F)c1)[C@H]2C(=O)Nc1cnc(Cl)c(Cl)c1` [Example 175, (1R,2R,3S,4R,5R)—N-(5,6-dichloropyridin-3-yl)-5-(dimethylamino)-3-(2-fluoropyridin-4-yl)-7-oxabicyclo[2.2.1]heptane-2-carboxamide], in the test on NHACs, the pEC50 was 4.54 and the Emax was found to be 186%.

In the case of `Nc1ncc([C@H]2[C@H]3O[C@H](C[C@@H]3O)[C@H]2C(=O)Nc2ccc(Cl)c(Cl)c2)cn1` [Example 60, (1R,2S,3S,4R,5S)-3-(2-aminopyrimidin-5-yl)-N-(3,4-dichlorophenyl)-5-hydroxy-7-oxabicyclo[2.2.1]heptane-2-carboxamide], in the test with NHACs, the pEC50 is < 4.30 and the Emax was determined as 2%.

On to `O=C(Nc1cccc(C(F)(F)F)c1)[C@H]1[C@@H]2O[C@@H]([C@H]3C[C@H]32)[C@@H]1c1ccncc1` [Example 131, (1S,2S,4R,5R,6R,7S)-7-(pyridin-4-yl)-N-(3-(trifluoromethyl)phenyl)-8-oxatricyclo[3.2.1.0^2,4]octane-6-carboxamide], for which, in the test on NHACs, the pEC50 was 4.72 and the Emax came to 360%.
